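Step 1: Grow cells in 96-well plates. Step 2: Expose to compound for 48 hours at 5 concentrations. Step 3: Interpolate endpoints linearly; if unreached, use highest concentration. TGI: concentration producing complete growth inhibition.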
How the values were obtained:
Assay in all cases: NCI-60 cell line screen, 48 h
M14 melanoma = test system: M14 melanoma
HCT-116 colon = test system: HCT-116 colon
A498 renal = test system: A498 renal
RPMI-8226 leukemia = test system: RPMI-8226 leukemia
UACC-257 melanoma = test system: UACC-257 melanoma
MCF7 breast = test system: MCF7 breast
ACHN renal = test system: ACHN renal
HL-60(TB) leukemia = test system: HL-60(TB) leukemia
SK-MEL-2 melanoma = test system: SK-MEL-2 melanoma
SF-539 CNS = test system: SF-539 CNS
RXF 393 renal = test system: RXF 393 renal
BT-549 breast = test system: BT-549 breast
IGROV1 ovarian = test system: IGROV1 ovarian
SR leukemia = test system: SR leukemia
PC-3 prostate = test system: PC-3 prostate
LOX IMVI melanoma = test system: LOX IMVI melanoma
UO-31 renal = test system: UO-31 renal
COLO 205 colon = test system: COLO 205 colon
MOLT-4 leukemia = test system: MOLT-4 leukemia
HS 578T breast = test system: HS 578T breast
CCRF-CEM leukemia = test system: CCRF-CEM leukemia
SK-MEL-28 melanoma = test system: SK-MEL-28 melanoma
NCI-H23 lung = test system: NCI-H23 lung
EKVX NSCLC = test system: EKVX NSCLC
SN12C renal = test system: SN12C renal
HOP-92 NSCLC = test system: HOP-92 NSCLC
DU-145 prostate = test system: DU-145 prostate
SW-620 colon = test system: SW-620 colon
SK-MEL-5 melanoma = test system: SK-MEL-5 melanoma
NCI/ADR-RES ovarian = test system: NCI/ADR-RES ovarian
SNB-75 CNS = test system: SNB-75 CNS
786-0 renal = test system: 786-0 renal
SF-268 CNS = test system: SF-268 CNS
MDA-MB-231 breast = test system: MDA-MB-231 breast
OVCAR-8 ovarian = test system: OVCAR-8 ovarian
U251 CNS = test system: U251 CNS
KM12 colon = test system: KM12 colon
OVCAR-5 ovarian = test system: OVCAR-5 ovarian
NCI-H460 lung = test system: NCI-H460 lung
TK-10 renal = test system: TK-10 renal
OVCAR-3 ovarian = test system: OVCAR-3 ovarian
HCT-15 colon = test system: HCT-15 colon
UACC-62 melanoma = test system: UACC-62 melanoma
HT29 colon = test system: HT29 colon
K-562 leukemia = test system: K-562 leukemia
NCI-H226 lung = test system: NCI-H226 lung
SNB-19 CNS = test system: SNB-19 CNS
HOP-62 NSCLC = test system: HOP-62 NSCLC
SK-OV-3 ovarian = test system: SK-OV-3 ovarian
MDA-MB-435 = test system: MDA-MB-435
OVCAR-4 ovarian = test system: OVCAR-4 ovarian
MALME-3M melanoma = test system: MALME-3M melanoma
T-47D breast = test system: T-47D breast
HCC-2998 colon = test system: HCC-2998 colon
CAKI-1 renal = test system: CAKI-1 renal
SF-295 CNS = test system: SF-295 CNS
A549 NSCLC = test system: A549 NSCLC
NCI-H522 lung = test system: NCI-H522 lung

Q: For `O=C(NC(Cc1c[nH]c2ccccc12)C(=O)Nc1ccc(Br)cc1)OCc1ccccc1` (stereo not drawn), which TGI (M14 melanoma) is on record?
A: 27.6 µM

Q: And the TGI (HCT-116 colon)?
A: 23.7 µM

Q: What about the TGI (A498 renal) of the same molecule?
A: 23.7 µM

Q: What about the TGI (RPMI-8226 leukemia) of the same molecule?
A: 34.2 µM

Q: And the TGI (UACC-257 melanoma)?
A: 23.5 µM

Q: What about the TGI (MCF7 breast) of the same molecule?
A: 29.3 µM

Q: What about the TGI (ACHN renal) of the same molecule?
A: 60.3 µM

Q: And the TGI (HL-60(TB) leukemia)?
A: 22.2 µM

Q: And the TGI (SK-MEL-2 melanoma)?
A: 19.2 µM

Q: And the TGI (SF-539 CNS)?
A: 29.2 µM

Q: What about the TGI (RXF 393 renal) of the same molecule?
A: 22.2 µM

Q: What about the TGI (BT-549 breast) of the same molecule?
A: 29.8 µM

Q: What about the TGI (IGROV1 ovarian) of the same molecule?
A: 27.6 µM

Q: What about the TGI (SR leukemia) of the same molecule?
A: 47.4 µM

Q: And the TGI (PC-3 prostate)?
A: 24.5 µM

Q: What about the TGI (LOX IMVI melanoma) of the same molecule?
A: 22.7 µM

Q: And the TGI (UO-31 renal)?
A: 27.4 µM

Q: And the TGI (COLO 205 colon)?
A: 24.7 µM

Q: And the TGI (MOLT-4 leukemia)?
A: 38.9 µM

Q: And the TGI (HS 578T breast)?
A: 56.3 µM

Q: And the TGI (CCRF-CEM leukemia)?
A: 36 µM

Q: And the TGI (SK-MEL-28 melanoma)?
A: 30.5 µM

Q: And the TGI (NCI-H23 lung)?
A: 26.5 µM

Q: What about the TGI (EKVX NSCLC) of the same molecule?
A: 22.3 µM

Q: And the TGI (SN12C renal)?
A: 22.5 µM

Q: What about the TGI (HOP-92 NSCLC) of the same molecule?
A: 19.1 µM

Q: And the TGI (DU-145 prostate)?
A: 29.2 µM

Q: And the TGI (SW-620 colon)?
A: 54.6 µM

Q: What about the TGI (SK-MEL-5 melanoma) of the same molecule?
A: 22.5 µM

Q: And the TGI (NCI/ADR-RES ovarian)?
A: 54.3 µM

Q: What about the TGI (SNB-75 CNS) of the same molecule?
A: 34.7 µM

Q: What about the TGI (786-0 renal) of the same molecule?
A: 25.2 µM

Q: What about the TGI (SF-268 CNS) of the same molecule?
A: 37.7 µM

Q: What about the TGI (MDA-MB-231 breast) of the same molecule?
A: 22.9 µM

Q: What about the TGI (OVCAR-8 ovarian) of the same molecule?
A: 30.3 µM

Q: And the TGI (U251 CNS)?
A: 25.1 µM

Q: What about the TGI (KM12 colon) of the same molecule?
A: 21.7 µM

Q: What about the TGI (OVCAR-5 ovarian) of the same molecule?
A: 35.1 µM

Q: What about the TGI (NCI-H460 lung) of the same molecule?
A: 20.1 µM

Q: And the TGI (TK-10 renal)?
A: 52.8 µM

Q: And the TGI (OVCAR-3 ovarian)?
A: 36.6 µM

Q: What about the TGI (HCT-15 colon) of the same molecule?
A: 26.7 µM

Q: What about the TGI (UACC-62 melanoma) of the same molecule?
A: 22 µM

Q: And the TGI (HT29 colon)?
A: 21.6 µM

Q: And the TGI (K-562 leukemia)?
A: 51.3 µM

Q: What about the TGI (NCI-H226 lung) of the same molecule?
A: 31.4 µM

Q: What about the TGI (SNB-19 CNS) of the same molecule?
A: 90.8 µM

Q: What about the TGI (HOP-62 NSCLC) of the same molecule?
A: 23.7 µM

Q: What about the TGI (SK-OV-3 ovarian) of the same molecule?
A: 46.3 µM

Q: What about the TGI (MDA-MB-435) of the same molecule?
A: 22.1 µM

Q: What about the TGI (OVCAR-4 ovarian) of the same molecule?
A: 23.6 µM

Q: And the TGI (MALME-3M melanoma)?
A: 34.1 µM

Q: And the TGI (T-47D breast)?
A: 53 µM

Q: And the TGI (HCC-2998 colon)?
A: 23.1 µM

Q: What about the TGI (CAKI-1 renal) of the same molecule?
A: 34.6 µM

Q: And the TGI (SF-295 CNS)?
A: 23.9 µM

Q: And the TGI (A549 NSCLC)?
A: > 100 µM

Q: What about the TGI (NCI-H522 lung) of the same molecule?
A: 28.6 µM

— PubChem BioAssay (NCI)
